Data published in patent US5066666A, “Aminoazole derivatives and their production and use” (Sumitomo Pharmaceuticals Company, Limited, priority 1986, dated 1991).
Where two headings read alike, the source gives them in different places.

Experiments:
[1] = test system: adjuvant arthritis; test: Rat-Adjuvant Arthritis Test; type: in vivo, male Sprague-Dawley rats; conditions: for minimal effective dose: Rattus norvegicus, po, orally once a day for 5 days (day 15 to 19), lowest dose with significant reduction (p<0.001) of foot volume, read-out: Minimum Effective Dose Adjuvant Arthritis; for effect in rat adjuvant arthritis test, in words: in vivo
Text: Rat adjuvant arthritis test is one of a few and most useful pharmacological model for the investigation of human […] inflammation. It is known that the effective compounds to this model system are useful for treatment of rheumatoid arthritis, such as steroids or non-steroidal anti-inflammatory drugs (Oyo Yakuri, 5, 169 (1971).
According to the method of Winter et al., Arth. Rheum., 9, 394 (1966), male Sprague-Dawley rats, 6 weeks of age, were given subplantar injection of the adjuvant consisting of 1 mg of killed Mycobacterium butyricum (Difco) and 0.2 ml of liquid paraffin. Fourteen days after, the rats with established arthritis were treated by the drug as follows: the test compound was suspended in 5% gum arabic solution and orally given once a day for 5 days, day 15 to day 19. Control rats were given gum arabic in the same way. On day 19, the volume of right foot was determined with a plethusometer. The lowest dose which gave significant reduction (p<0.001)of the foot volume from that of the control group was regarded as a minimum effective dose (MED).

[2] = test system: Arthus reaction; test: Mice-Arthus Test; type: in vivo, male BABL/c mice; conditions: for minimal effective dose: Mus musculus, 3 h, orally 24 hr and 1 hr before the challenge, read-out: Minimum Effective Dose Arthus
Method: The activity of effect for rheumatoid arthritis may be estimated by effect for Arthus reaction. […] Two weeks later, mice were boosted by the i.v. injection of 8×10^7 SRBC and 5 day later the animals were challenged by the subcutaneous injection of 1×10^8 SRBC in 25 μl of PBS into the right hind footpad. The thickness of the SRBC-injection right hind paw and contralateral left hind paw were measured with micrometer 3 hr after the challenge. The difference between these two measurements is regarded as the oedema due to the Arthus reaction. Percentage inhibition of the reaction was determined by comparison with the positive control group. The test compounds were administered orally 24 hr and 1 hr before the challenge.

[3] = test system: Arthus reaction; conditions: background statement; cited from earlier work
[4] = test system: adjuvant arthritis; conditions: background statement; cited from earlier work
[5] = molecular target: T1, 5-lipoxygenase (Cavia porcellus, UniProt A0A286X958); test: 5-Lypoxygenase Inhibitory Test; type: cell-based, Hartley guinea pigs; conditions: PMNs from guinea pigs, A23187 stimulated, [14C] arachidonic acid; Inhibition (%) classes
T1 construct: polymorphonuclear leukocytes (PMNs) from Hartley guinea pigs; endogenous in cells; host or cells: casein-elicited peritoneal polymorphonuclear leukocytes of Hartley guinea pigs (intact cells)
T1 sequence (A0A286X958 1-674): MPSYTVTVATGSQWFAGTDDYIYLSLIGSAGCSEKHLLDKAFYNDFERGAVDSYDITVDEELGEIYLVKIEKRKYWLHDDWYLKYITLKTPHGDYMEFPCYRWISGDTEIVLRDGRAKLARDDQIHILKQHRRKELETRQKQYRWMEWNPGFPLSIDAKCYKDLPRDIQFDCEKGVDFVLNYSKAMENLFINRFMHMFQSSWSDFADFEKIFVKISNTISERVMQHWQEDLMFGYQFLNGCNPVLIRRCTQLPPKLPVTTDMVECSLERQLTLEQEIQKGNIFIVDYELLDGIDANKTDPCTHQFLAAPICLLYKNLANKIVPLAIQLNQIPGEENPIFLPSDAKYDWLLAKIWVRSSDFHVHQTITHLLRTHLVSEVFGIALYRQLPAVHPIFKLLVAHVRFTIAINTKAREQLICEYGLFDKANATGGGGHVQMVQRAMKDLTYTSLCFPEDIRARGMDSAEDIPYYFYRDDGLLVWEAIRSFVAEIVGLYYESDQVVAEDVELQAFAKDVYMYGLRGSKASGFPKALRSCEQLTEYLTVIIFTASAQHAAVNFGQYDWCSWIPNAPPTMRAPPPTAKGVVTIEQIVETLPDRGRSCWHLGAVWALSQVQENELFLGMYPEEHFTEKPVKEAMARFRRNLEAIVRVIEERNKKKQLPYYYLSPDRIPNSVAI
Method: According to the method of Harvey et al., J. Pharmacol. Meth., 9, 147-155 (1983), polymorphonuclear leukocytes (PMNs) from Hartley guinea pigs weighting 280 to 350 g were elicited by intraperit oneal injection of 2% casein suspension (10 ml/100 g guiner pig weight), and collected 16-18 hrs later. The cells were washed with saline and finally suspended at 2.39×10^7 cells/ml in Krebs Ringer Bicarbonate buffer (KBR) pH 7.4.
935 μl of PMNs were aliquoted into 15 ml glass tubes and prewarmed to 37° C. in a shaking water bath. Drugs (10 μl of dimethylsulfoxide (DMSO)) were added 10 minutes prior to the addition of 1-^14 C-arachidonic acid (New England Neuclear Co.; 50 μl of 2 μCi/mlKBR) and calciumionophor, A23187 (Calbiochem Boehring Co.; 5 μl of 1 mg/mlDMSO). The reaction was terminated after a further 10 min by the addition of 0.2M citric acid (100 μl). Unstimulated controls were also included to determine the increased metabolism of arachidonic acid due to A23187. Samples were diluted with water (4 ml) and extracted twice with ethyl acetate (5 ml). The ethyl acetate was concentrated under a stream of nitrogen and two-thirds of the residue was applied to TLC plates. The plates were developed in toluene:dioxane:acetic acid=65:34:1.5at 10° C.
Radiochromatographic analysis of the labelled metabolites of [^14 C] arachidonic acid utilized a Berthold LB283 TLC Linear Analyzer. In samples and controls, a ratio of radioactivity of 5-HETE in metabolites to all of metabolites of [^14 C] arachidonic acid was calculated, and results were determined as percent inhibition calculated from those retios.

[6] = background statement, clinical use, cited from earlier work

SMILES	minimal effective dose [1] [mg/kg]	minimal effective dose [2] [mg/kg]	effect in Arthus reaction, in words [3]	effect in adjuvant arthritis test, in words [4]	Activity of Inhibition (5-lipoxygenase) [5]	further results
CNc1nc(C(C)c2ccc(-c3ccccc3)c(F)c2)cs1 (stereo not drawn) [Example 2, 4-[1-(2-fluoro-4-biphenylyl)ethyl]-2-methylaminothiazole]	25	10	–	–	–	–
CC(c1cccc(C(=O)c2ccccc2)c1)c1cc(N)on1 (stereo not drawn) [Example 74]	2.5	50	–	–	–	–
c1ccc(CCNc2nc(-c3ccccc3)cs2)cc1 [fanetizole, 2-phenethylamino-4-phenylthiazole]	–	–	effective	non-effective	–	–
CC(c1cccc(C(=O)c2ccccc2)c1)c1nc(N)no1 (stereo not drawn) [Example 22]	2.5	50	–	–	+++ (70%<)	–
CC(c1ccc(-c2ccccc2)c(F)c1)c1csc(N(C)C)n1 (stereo not drawn) [Example 48, 4-(1-(2-fluoro-4-biphenylyl)ethyl)-2-dimethylaminothiazole]	10	50	–	–	–	–
CN(C)c1noc(Cc2cccc(C(=NO)c3ccccc3)c2)n1 [Example 67]	10	50	–	–	+++ (70%<)	–
CC(c1cccc(C(=O)c2ccccc2)c1)c1nc(N(C)C)no1 (stereo not drawn) [Example 11, 3-dimethylamino-5-(1-(3-benzoylphenyl)ethyl)-1,2,4-oxadiazole]	2.5	10	–	–	–	–
CC(c1ccc(-c2ccccc2)c(F)c1)c1coc(N)n1 (stereo not drawn) [Example 7, 2-Amino-4-(1-(2-fluoro-4-biphenylyl)ethyl)oxazole]	10	10	–	–	–	–
CC(c1ccc(-c2ccccc2)c(F)c1)c1nc(N)no1 (stereo not drawn) [Example 21, 3-amino-5-(1-(2-fluoro-4-biphenylyl)ethyl)-1,2,4-oxadiazole]	2.5	10	–	–	++ (40-70%)	–
O=C(Nc1nc(-c2ccccc2)cs1)OCC(Cl)(Cl)Cl [lotifazole, 4-phenyl-2-(2',2',2'-trichloroethoxycarboxamido)thiazole]	–	–	effective	non-effective	–	–
c1ccc([C@H]2CN3CCSC3=N2)cc1 [levamizole]	–	50	effective	non-effective	–	side effects [6]: serious side effects; side effects ([6]; listed as Levamizole): many severe side-effects; Adjuvant Arthritis (result in words) ([1]; at 50 mg/kg): non-effective; effect in rat adjuvant arthritis test, in words [1]: non-effective
CC(c1cccc(C(=NO)c2ccccc2)c1)c1nc(N)no1 (stereo not drawn) [Example 65]	–	–	–	–	+++ (70%<)	–
CC(C)(S)[C@@H](N)C(=O)O [D-Penicillamine]	–	–	non-effective	non-effective	–	Adjuvant Arthritis (result in words) ([1]; at 200 mg/kg): non-effective; effect in rat adjuvant arthritis test, in words [1]: non-effective; effect in mice Arthus reaction test, in words ([2]; mouse, in vivo): non-effective
